# From PMC8248988, “A signal capture and proofreading mechanism for the KDEL-receptor explains selectivity and dynamic range in ER retrieval” (eLife, 2021)
# Legend:
# HeLa S3 cells = test: ER secretion assay, xDEL ligand secretion (Western blot for mScarlet); assay type: cell-based, human
# Description: (§1) Figure 1. ER retrieval signal abundance and affinity are not correlated. (a) Sequence logos for ER resident proteins with C-terminal KDEL retrieval signals and variants thereof calculated using frequency or protein abundance ([Itzhak et al., 2017]; [Itzhak et al., 2016]). (b) Combined cellular concentrations of ER resident proteins with canonical KDEL, RDEL, and HDEL retrieval sequences in HeLa cells and mouse brain. (c) Competition binding assays for [^3H]-TAEHDEL and unlabelled TAEKDEL, TAERDEL, and TAEHDEL to the KDEL receptor. IC50 values for the competing peptides were used to calculate the apparent KDwith the Cheng-Prusoff equation ([Cheng and Prusoff, 1973]). (d) Endogenous KDEL receptor redistribution was measured in COS-7 cells in the absence (-ligand) or presence of K/R/H/A/DDEL (mScarlet-xDEL^sec). TGN46 was used as a Golgi marker. Scale bar is 10 µm. (e) The mean difference for K/R/H/A/DDEL comparisons against the shared no ligand control are shown as Cummings estimation plots. The individual data points for the fraction of KDEL receptor fluorescence in the Golgi are plotted on the upper axes with sample sizes and p values. Figure 1—source data 1. Source data for the ligand-induced KDELR receptor retrieval assays in Figure 1e. Figure 1—figure supplement 1. Abundance of ER resident proteins and chaperones in human cells and mouse brain. (a) The mean concentration of ER resident chaperones with the indicated ER retrieval sequence variant is plotted in the bar graph ([Itzhak et al., 2017]; [Itzhak et al., 2016]). (b) Combined cellular concentrations of ER resident proteins with canonical KDEL, RDEL, and HDEL retrieval sequences in HeLa cells and mouse brain. (c) The mean concentration of KDELR1, KDELR2, and KDELR3 in HeLa cells and mouse brain is plotted in the bar graph ([Itzhak et al., 2017]; [Itzhak et al., 2016]). (d) Cells and media collected from HeLa S3 cells expressing the xDEL variants (mScarlet-xDEL^sec) indicated in the figure were Western blotted for resident ER chaperones and KDELR. (e) A bar graph of xDEL secretion showing mean ± SEM (n = 3). (f). Endogenous ER chaperone secretion was measured by western blotting after challenge with different retrieval signals, and plotted as a bar graph showing mean ± SEM (n = 3). Figure 1—figure supplement 1—source data 1. Source data for analysis of ER protein levels in Figure 1—figure supplement 1a and c. Figure 1—figure supplement 1—source data 2. […] (a) Distribution of human KDELR1 and (b) KDELR2 was measured in COS-7 cells in the absence (-ligand) or presence of K/R/H/A/DDEL retrieval signals (K/R/H/A/DDEL^sec). […] The fraction of KDEL receptor localised to the Golgi was measured before (no ligand) and after challenge with different retrieval signals as indicated. […]
# BIP = test: ER chaperone secretion assay, BIP; assay type: cell-based, human
# Description: as §1, with “(b) Combined cellular concentrations of ER resident proteins with canonical KDEL, RDEL, and HDEL retrieval sequences in HeLa cells and mouse brain. (c) The mean concentration of KDELR1, KDELR2, and KDELR3 in HeLa cells and mouse brain is plotted in the bar graph ([Itzhak et al., 2017]; [Itzhak et al., 2016]). (d) Cells and media collected from HeLa S3 cells expressing the xDEL variants (mScarlet-xDEL^sec) indicated in the figure were Western blotted for resident ER chaperones and KDELR. (e) A bar graph of xDEL secretion showing mean ± SEM (n = 3). (f).” left out, “3).” for “3). Figure 1—figure supplement 1—source data 1. Source data for analysis of ER protein levels in Figure 1—figure supplement 1a and c. Figure 1—figure supplement 1—source data 2.”
substance,measurement,setting,value
"ADEL [pcDNA3.1 hGHss-mScarlet-H. sapiens BiP639-654K651A (ADEL^SEC), secreted mScarlet fusion with human BiP C-terminus, ADEL signal]",retention or secretion of the xDEL ligand (in words),HeLa S3 cells; HeLa S3 cells,mostly secreted
same,xDEL secretion (mScarlet),"HeLa S3 cells; mean, HeLa S3, 24 hr, cells and media Western blot densitometry",51.6
same,xDEL secretion (mScarlet),HeLa S3 cells; replicate 1,33.9
same,xDEL secretion (mScarlet),HeLa S3 cells; replicate 2,69.2
same,BiP secretion after challenge with retrieval signal,"BIP; mean, HeLa S3, 24 hr, Western blot densitometry",8.5
same,BiP secretion after challenge with retrieval signal,BIP; replicate 1,15.9
same,BiP secretion after challenge with retrieval signal,BIP; replicate 2,1.1
